Measured values as given in BindingDB's records for doi:10.7270/Q2SJ1J25 (Burnham Center For Chemical Genomics, 2010).

target: Alkaline phosphatase, placental type (Homo sapiens, UniProt P05187); experiment: PLAP enzyme activators, dose response, mouse IAP activator project, biochemical, uHTS hits (AID 488878)
Sequence (P05187 whole entry, looked up): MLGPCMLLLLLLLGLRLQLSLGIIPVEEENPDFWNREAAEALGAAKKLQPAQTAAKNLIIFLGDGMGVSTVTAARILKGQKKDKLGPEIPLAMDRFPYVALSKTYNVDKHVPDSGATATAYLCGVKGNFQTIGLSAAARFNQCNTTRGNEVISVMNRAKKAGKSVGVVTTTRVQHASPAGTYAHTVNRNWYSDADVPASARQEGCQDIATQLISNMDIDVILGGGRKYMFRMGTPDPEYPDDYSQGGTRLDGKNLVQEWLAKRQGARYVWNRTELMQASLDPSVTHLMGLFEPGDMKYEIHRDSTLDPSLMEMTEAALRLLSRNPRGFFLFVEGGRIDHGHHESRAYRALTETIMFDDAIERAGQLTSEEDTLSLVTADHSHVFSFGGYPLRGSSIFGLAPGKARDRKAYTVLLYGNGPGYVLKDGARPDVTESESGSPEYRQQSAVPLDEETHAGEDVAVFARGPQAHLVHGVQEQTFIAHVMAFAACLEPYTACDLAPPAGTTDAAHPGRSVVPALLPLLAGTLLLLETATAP

Compound | EC50 [µM]
CN(CCO)c1ccc(CN=Nc2ccc([N+](=O)[O-])cc2S(=O)(=O)Nc2ccccc2C(=O)O)cc1 | 26
O=C(NN=CC1=CC(=O)C(=O)CC1)NN=CC1=CC(=O)C(=O)CC1 [1,3-bis[[(Z)-(3-hydroxy-4-oxocyclohexa-2,5-dien-1-ylidene)methyl]amino]urea] | 29.6
O=C1CC(=O)c2c(O)cc(O)c(O)c2C1=O [4,5,7,8-tetrahydroxy-1,2-naphthoquinone] | > 100
O=c1ccc2cc3c([nH]c4ccc(Br)cc43)oc-2c1O [9-bromo-4-hydroxy-6H-[1]benzopyrano[2,3-b]indol-3-one] | 24.1
Oc1ccc(CN=Nc2cc(N3CCCC3)nc(N3CCCC3)n2)cc1O [(4Z)-4-[[2-(2,6-dipyrrolidin-1-ylpyrimidin-4-yl)hydrazinyl]methylidene]-2-hydroxycyclohexa-2,5-dien-1-one] | > 100
C#CCOCCOCCOCCNc1nc(N2CCN(C(=O)CCCCCCCCCCNC(=O)Cn3cc(CCCCCN)nn3)CC2)nc(N2CCN(C(=O)CCCCCCCCCCNC(=O)Cn3cc(C[C@@H](C)O)nn3)CC2)n1 [KG-TG] | > 100
C#CCOCCOCCOCCNc1nc(N2CCN(C(=O)CCCCCCCCCCNC(=O)[C@@H](CCC(=O)O)n3cc(CCCCCN)nn3)CC2)nc(N2CCN(C(=O)CCCCCCCCCCNC(=O)[C@H]([C@@H](C)CC)n3cc(CCCCCN)nn3)CC2)n1 [KI-KE] | > 100
C[C@@H]1O[C@@H](O[C@H]2[C@H](O)[C@@H](O)[C@H](Oc3c(-c4ccc(O)c(O)c4)oc4cc(O)cc(=O)c-4c3O)O[C@@H]2CO)[C@H](O)[C@H](O)[C@H]1O [quercetin-3-rham(4)-gluc] | 22.6

Next, values leading:

EC50 [µM] | Compound
23.5 | Nc1c(/C=C2/C=CC(=O)C(O)=C2)c(=O)nc2sc(CC(=O)N3CCCCC3)nn12 [MLS001139223]
9.83 | Nc1c(/C=C2/C=CC(=O)C(O)=C2)c(=O)nc2sc(CC(=O)N3CCCC3)nn12 [MLS001139292]
65.7 | Cc1cc(=O)[nH]c(N=NCc2ccc(O)c(O)c2)n1 [MLS001194906]
83.5 | CS(=O)(=O)c1ccc2c(c1)sc1nc(=O)c(/C=C3/C=CC(=O)C(O)=C3)c(N)n12 [SMR000415838]
> 100 | O=C1C=CC(/C=C/c2nc(O)c([N+](=O)[O-])c(=O)[nH]2)C=C1O (stereo not drawn) [SMR000524347]
